Measurements: PMC9133015 (Nature Communications, 2022)
Several values for one entry are separate records, joined by “and”; a condition that tells them apart may be missing. Identical values can stand only once.

Legend:
Assay in all cases: Kinase inhibitor specificity profiling (Reaction Biology Corporation)
Type in all cases: biochemical
Parameters in all cases: % Enzyme Activity (relative to DMSO controls): concentration or dose not given beside the values
[1] = molecular target: T1, panel of 370 protein kinases (Homo sapiens, UniProt P52333); details: 2 h, kinase JAK3; read-out: % Enzyme Activity (relative to DMSO controls)
T1 construct: purchased Reaction Biology Corporation (assay service)

[2] = molecular target: T2, panel of 370 protein kinases (Homo sapiens, UniProt Q9UHD2); details: 2 h, kinase TBK1; read-out: % Enzyme Activity (relative to DMSO controls)
T2 construct: purchased Reaction Biology Corporation (assay service)

[3] = molecular target: T3, panel of 370 protein kinases (Homo sapiens, UniProt Q7L7X3); details: 2 h, kinase TAOK1; read-out: % Enzyme Activity (relative to DMSO controls)
T3 construct: purchased Reaction Biology Corporation (assay service)

[4] = molecular target: T4, panel of 370 protein kinases (Homo sapiens, UniProt O95382); details: 2 h, kinase MEKK6; read-out: % Enzyme Activity (relative to DMSO controls)
T4 construct: purchased Reaction Biology Corporation (assay service)

[5] = molecular target: T5, panel of 370 protein kinases (Homo sapiens, UniProt Q13177); details: 2 h, kinase PAK2; read-out: % Enzyme Activity (relative to DMSO controls)
T5 construct: purchased Reaction Biology Corporation (assay service)

[6] = molecular target: T6, panel of 370 protein kinases (Homo sapiens, UniProt Q6DT37); details: 2 h, kinase DMPK2; read-out: % Enzyme Activity (relative to DMSO controls)
T6 construct: purchased Reaction Biology Corporation (assay service)

[7] = molecular target: T7, panel of 370 protein kinases (Homo sapiens, UniProt O75716); details: 2 h, kinase STK16; read-out: % Enzyme Activity (relative to DMSO controls)
T7 construct: purchased Reaction Biology Corporation (assay service)

[8] = molecular target: T8, panel of 370 protein kinases (Homo sapiens, UniProt P29320); details: 2 h, kinase EPHA3; read-out: % Enzyme Activity (relative to DMSO controls)
T8 construct: purchased Reaction Biology Corporation (assay service)

[9] = molecular target: T9, panel of 370 protein kinases (Homo sapiens, UniProt P22612); details: 2 h, kinase PKAcg; read-out: % Enzyme Activity (relative to DMSO controls)
T9 construct: purchased Reaction Biology Corporation (assay service)

[10] = molecular target: T10, panel of 370 protein kinases (Homo sapiens, UniProt Q9NYY3); details: kinase PLK2
T10 construct: purchased Reaction Biology Corporation (assay service)
T10 sequence (Q9NYY3 whole entry): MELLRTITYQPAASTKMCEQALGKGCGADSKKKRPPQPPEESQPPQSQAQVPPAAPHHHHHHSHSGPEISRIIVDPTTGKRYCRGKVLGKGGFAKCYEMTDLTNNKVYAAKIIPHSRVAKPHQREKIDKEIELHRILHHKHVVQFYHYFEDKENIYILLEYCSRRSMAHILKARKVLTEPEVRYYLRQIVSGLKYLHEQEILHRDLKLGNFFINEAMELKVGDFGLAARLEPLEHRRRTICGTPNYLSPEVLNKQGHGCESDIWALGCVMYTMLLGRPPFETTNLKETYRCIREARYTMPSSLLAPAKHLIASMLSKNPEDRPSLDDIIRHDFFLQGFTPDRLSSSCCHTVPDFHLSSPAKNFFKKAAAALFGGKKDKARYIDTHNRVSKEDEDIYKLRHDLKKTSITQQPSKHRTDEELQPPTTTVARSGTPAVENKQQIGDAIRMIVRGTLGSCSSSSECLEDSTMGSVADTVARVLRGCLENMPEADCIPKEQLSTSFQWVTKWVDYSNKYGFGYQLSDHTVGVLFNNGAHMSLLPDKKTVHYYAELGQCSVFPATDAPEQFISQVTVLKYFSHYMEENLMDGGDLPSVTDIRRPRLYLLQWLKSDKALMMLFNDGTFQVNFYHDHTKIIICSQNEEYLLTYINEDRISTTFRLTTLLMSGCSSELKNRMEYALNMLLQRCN

[11] = molecular target: T11, panel of 370 protein kinases (Homo sapiens, UniProt Q8IY84); details: 2 h, kinase NIM1; read-out: % Enzyme Activity (relative to DMSO controls)
T11 construct: purchased Reaction Biology Corporation (assay service)

[12] = molecular target: T12, panel of 370 protein kinases (Homo sapiens, UniProt Q9P286); details: 2 h, kinase PAK5; read-out: % Enzyme Activity (relative to DMSO controls)
T12 construct: purchased Reaction Biology Corporation (assay service)

[13] = molecular target: T13, panel of 370 protein kinases (Homo sapiens, UniProt P57059); details: kinase SIK1
T13 construct: purchased Reaction Biology Corporation (assay service)
T13 sequence (P57059 whole entry): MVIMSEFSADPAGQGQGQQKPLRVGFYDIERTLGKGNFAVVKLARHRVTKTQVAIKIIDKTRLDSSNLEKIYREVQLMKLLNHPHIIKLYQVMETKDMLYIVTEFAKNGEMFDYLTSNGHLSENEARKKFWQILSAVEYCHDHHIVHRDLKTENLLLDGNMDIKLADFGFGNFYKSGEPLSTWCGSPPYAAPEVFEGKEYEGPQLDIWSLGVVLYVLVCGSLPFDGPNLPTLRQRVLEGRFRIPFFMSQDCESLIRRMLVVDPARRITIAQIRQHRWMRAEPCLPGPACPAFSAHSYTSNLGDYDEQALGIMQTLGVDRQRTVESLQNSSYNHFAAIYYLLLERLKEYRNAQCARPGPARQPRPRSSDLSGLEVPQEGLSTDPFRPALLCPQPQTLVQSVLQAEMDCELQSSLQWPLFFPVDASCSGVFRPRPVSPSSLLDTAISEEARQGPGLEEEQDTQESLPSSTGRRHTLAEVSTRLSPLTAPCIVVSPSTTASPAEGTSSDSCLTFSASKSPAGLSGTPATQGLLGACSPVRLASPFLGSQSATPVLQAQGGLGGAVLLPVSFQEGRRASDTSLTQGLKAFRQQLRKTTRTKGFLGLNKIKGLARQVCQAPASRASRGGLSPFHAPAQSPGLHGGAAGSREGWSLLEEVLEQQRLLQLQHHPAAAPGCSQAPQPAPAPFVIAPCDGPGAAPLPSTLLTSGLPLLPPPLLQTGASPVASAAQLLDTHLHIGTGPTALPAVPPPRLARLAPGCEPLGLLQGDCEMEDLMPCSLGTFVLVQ

[14] = molecular target: T14, panel of 370 protein kinases (Homo sapiens, UniProt O15530); details: 2 h, kinase PDK1/PDPK1; read-out: % Enzyme Activity (relative to DMSO controls)
T14 construct: purchased Reaction Biology Corporation (assay service)

[15] = molecular target: T15, panel of 370 protein kinases (Homo sapiens, UniProt Q9UIK4); details: 2 h, kinase DAPK2; read-out: % Enzyme Activity (relative to DMSO controls)
T15 construct: purchased Reaction Biology Corporation (assay service)
T15 sequence (Q9UIK4 whole entry): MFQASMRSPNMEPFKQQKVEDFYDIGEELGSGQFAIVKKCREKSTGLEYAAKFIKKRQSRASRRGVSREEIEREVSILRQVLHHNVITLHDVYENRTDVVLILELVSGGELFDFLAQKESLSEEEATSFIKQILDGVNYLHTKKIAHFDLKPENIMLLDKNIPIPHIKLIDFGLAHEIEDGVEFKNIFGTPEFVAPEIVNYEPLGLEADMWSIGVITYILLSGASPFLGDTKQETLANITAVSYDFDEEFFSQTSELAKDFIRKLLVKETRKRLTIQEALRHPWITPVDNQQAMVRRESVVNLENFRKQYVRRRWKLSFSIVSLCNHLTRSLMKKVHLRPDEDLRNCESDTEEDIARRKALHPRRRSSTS

[16] = molecular target: T16, panel of 370 protein kinases (Homo sapiens, UniProt P27448); details: 2 h, kinase MARK3; read-out: % Enzyme Activity (relative to DMSO controls)
T16 construct: purchased Reaction Biology Corporation (assay service)

[17] = molecular target: T17, panel of 370 protein kinases (Homo sapiens, UniProt Q9BUB5); details: 2 h, kinase MNK1; read-out: % Enzyme Activity (relative to DMSO controls)
T17 construct: purchased Reaction Biology Corporation (assay service)

[18] = molecular target: T18, panel of 370 protein kinases (Homo sapiens, UniProt P51451); details: 2 h, kinase BLK; read-out: % Enzyme Activity (relative to DMSO controls)
T18 construct: purchased Reaction Biology Corporation (assay service)

[19] = molecular target: T19, panel of 370 protein kinases (Homo sapiens, UniProt P22607); details: 2 h, kinase FGFR3; read-out: % Enzyme Activity (relative to DMSO controls)
T19 construct: purchased Reaction Biology Corporation (assay service)

[20] = molecular target: T20, panel of 370 protein kinases (Homo sapiens, UniProt Q16584); details: kinase MLK3/MAP3K11
T20 construct: purchased Reaction Biology Corporation (assay service)
T20 sequence (Q16584 whole entry): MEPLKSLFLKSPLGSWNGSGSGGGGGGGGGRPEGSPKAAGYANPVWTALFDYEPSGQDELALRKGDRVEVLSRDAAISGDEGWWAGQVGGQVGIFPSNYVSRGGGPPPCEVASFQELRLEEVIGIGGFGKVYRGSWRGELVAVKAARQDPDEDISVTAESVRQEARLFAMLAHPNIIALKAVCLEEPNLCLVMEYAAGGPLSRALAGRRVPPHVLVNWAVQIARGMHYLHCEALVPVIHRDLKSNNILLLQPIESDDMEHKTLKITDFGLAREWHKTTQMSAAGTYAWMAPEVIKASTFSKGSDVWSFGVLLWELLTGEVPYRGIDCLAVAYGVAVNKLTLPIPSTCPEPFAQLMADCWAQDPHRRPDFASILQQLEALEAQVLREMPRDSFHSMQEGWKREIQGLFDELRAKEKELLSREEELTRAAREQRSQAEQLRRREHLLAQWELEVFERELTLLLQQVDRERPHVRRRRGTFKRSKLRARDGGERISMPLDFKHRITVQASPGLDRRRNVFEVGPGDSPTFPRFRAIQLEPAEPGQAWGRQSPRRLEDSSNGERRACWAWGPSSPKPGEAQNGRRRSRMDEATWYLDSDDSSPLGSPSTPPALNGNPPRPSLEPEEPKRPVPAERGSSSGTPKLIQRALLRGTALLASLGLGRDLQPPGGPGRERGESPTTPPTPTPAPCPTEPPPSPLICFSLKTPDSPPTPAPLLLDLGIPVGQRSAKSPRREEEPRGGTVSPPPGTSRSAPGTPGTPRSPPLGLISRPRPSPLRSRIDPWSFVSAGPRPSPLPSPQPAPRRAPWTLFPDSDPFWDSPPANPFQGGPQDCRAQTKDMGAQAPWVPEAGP

[21] = molecular target: T21, panel of 370 protein kinases (Homo sapiens, UniProt Q13557); details: 2 h, kinase CAMK2d; read-out: % Enzyme Activity (relative to DMSO controls)
T21 construct: purchased Reaction Biology Corporation (assay service)

[22] = molecular target: T22, panel of 370 protein kinases (Homo sapiens, UniProt Q9H4A3); details: kinase WNK1
T22 construct: purchased Reaction Biology Corporation (assay service)
T22 sequence (Q9H4A3 whole entry): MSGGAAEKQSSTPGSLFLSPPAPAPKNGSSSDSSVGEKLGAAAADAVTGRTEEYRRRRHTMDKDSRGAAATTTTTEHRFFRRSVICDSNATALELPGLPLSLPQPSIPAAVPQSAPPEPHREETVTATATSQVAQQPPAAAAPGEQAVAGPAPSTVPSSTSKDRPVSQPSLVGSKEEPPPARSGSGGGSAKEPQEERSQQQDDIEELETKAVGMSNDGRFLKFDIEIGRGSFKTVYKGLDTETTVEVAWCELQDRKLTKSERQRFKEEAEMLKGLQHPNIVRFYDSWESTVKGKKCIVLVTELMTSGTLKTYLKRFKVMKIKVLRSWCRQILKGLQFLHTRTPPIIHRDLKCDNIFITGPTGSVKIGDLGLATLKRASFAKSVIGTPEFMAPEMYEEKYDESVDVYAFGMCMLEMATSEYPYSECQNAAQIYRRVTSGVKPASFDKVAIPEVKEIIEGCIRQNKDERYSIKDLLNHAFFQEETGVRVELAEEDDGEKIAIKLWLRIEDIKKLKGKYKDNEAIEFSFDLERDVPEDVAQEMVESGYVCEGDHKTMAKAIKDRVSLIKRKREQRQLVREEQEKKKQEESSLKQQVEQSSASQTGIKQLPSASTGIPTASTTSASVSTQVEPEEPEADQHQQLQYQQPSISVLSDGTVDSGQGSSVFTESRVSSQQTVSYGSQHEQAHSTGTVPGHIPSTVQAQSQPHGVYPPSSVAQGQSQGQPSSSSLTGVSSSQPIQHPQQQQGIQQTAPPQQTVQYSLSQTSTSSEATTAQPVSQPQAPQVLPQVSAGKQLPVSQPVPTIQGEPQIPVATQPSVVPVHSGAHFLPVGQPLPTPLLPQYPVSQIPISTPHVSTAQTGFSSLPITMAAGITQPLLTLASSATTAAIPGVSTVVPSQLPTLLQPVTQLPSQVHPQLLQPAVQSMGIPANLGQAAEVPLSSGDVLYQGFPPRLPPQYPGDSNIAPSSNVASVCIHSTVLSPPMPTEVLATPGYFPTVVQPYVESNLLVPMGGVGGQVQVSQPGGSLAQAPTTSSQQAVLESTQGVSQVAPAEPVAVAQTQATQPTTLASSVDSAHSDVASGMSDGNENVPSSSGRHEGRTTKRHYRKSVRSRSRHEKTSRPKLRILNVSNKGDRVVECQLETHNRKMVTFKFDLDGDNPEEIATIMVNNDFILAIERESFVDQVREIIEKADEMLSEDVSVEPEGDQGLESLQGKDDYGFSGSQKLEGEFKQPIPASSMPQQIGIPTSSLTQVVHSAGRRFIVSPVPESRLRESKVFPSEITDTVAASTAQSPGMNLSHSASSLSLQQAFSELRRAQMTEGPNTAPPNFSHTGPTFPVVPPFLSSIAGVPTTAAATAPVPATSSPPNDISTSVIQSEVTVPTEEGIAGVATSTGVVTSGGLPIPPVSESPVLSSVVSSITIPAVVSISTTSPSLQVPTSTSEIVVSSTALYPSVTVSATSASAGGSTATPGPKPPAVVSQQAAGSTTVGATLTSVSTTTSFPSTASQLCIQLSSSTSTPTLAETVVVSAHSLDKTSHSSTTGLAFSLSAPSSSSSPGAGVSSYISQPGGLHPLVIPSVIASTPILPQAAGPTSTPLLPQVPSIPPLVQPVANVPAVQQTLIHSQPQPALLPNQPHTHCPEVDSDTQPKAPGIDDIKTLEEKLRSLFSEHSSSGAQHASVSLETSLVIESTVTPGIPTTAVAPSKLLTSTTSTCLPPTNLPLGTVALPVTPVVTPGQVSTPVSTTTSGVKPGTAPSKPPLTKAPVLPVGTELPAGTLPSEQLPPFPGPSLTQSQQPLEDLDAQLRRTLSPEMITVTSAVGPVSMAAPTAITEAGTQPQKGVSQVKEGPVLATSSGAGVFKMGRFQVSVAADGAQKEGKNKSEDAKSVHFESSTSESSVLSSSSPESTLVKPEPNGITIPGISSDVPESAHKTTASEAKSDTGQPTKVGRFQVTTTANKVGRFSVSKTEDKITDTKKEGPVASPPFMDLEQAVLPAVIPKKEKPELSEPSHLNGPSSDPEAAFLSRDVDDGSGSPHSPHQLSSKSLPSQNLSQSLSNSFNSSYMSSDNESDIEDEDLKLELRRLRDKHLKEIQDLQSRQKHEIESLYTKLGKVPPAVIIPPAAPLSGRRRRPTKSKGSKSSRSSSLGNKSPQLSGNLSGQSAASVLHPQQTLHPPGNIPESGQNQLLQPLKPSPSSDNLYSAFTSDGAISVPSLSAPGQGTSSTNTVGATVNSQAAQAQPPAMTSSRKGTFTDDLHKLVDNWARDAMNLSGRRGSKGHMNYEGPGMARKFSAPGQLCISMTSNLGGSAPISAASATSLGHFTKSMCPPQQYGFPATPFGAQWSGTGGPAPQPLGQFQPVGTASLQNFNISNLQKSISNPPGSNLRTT

In the case of `CCN1CCN(C(=O)c2ccc(Nc3ncc(F)c(-c4ccc5nc(N(C)C)sc5c4)n3)nc2)CC1` [YK-2-69], the remaining activity at 1 µM [1] is reported as 111%, the remaining activity at 1 µM [2] is reported as 93.1% and the remaining activity at 1 µM [3] is reported as 108%. For the same compound, the remaining activity at 1 µM [4] was 111%, the remaining activity at 1 µM [5] was 94.7% and the remaining activity at 1 µM [6] was 97.7%. For the same compound, the remaining activity at 1 µM [7] was 57.5%, the remaining activity at 1 µM [8] was 95.2% and the remaining activity at 1 µM [9] was 96.9%. The “% Enzyme Activity (relative to DMSO controls)” value [10] was 98.55% and 92.68%, the remaining activity at 1 µM [11] was 96.9% and the remaining activity at 1 µM [12] was 101%. The “% Enzyme Activity (relative to DMSO controls)” value [13] was 99.48% and 98.60%, the remaining activity at 1 µM [14] was 100% and the remaining activity at 1 µM [15] was 89.2%. The remaining activity at 1 µM [16] was 103%, the remaining activity at 1 µM [17] was 89.6% and the remaining activity at 1 µM [18] was 100%. For the same compound, the remaining activity at 1 µM [19] was 94%, the “% Enzyme Activity (relative to DMSO controls)” value [20] was 97.08% and 87.23% and the remaining activity at 1 µM [21] was 92.8%. The “% Enzyme Activity (relative to DMSO controls)” value [22] was 116.91% and 108.19%.
